Results published in patent publication US8071645B2, “Systems and methods for treating human inflammatory and proliferative diseases and wounds, with fatty acid metabolism inhibitors and/or glycolytic inhibitors” (The Regents of the University of Colorado, priority 2003, dated 2011).

What was measured:
Format in all cases: cell-based
[1] = tested on: cell-surface Fas on drug sensitive L1210 cells; experiment: cell-surface Fas expression on L1210 cells by flow cytometry
Experimental: (§1) Flow Cytometry. Cells were harvested, counted, and resuspended at 10^6 cells/100 μl of PBS containing 2.5% fetal calf serum in preparation for flow cytometric analysis. Cells were stained for intracellular H202 using 6-carboxy-2′,7′-dichlorodihydrofluorescein diacetate (DCF-DA, Molecular Probes, Eugene, Oreg.). Briefly, cells were incubated at 37° with 1 mM DCF-DA for 20 minutes, washed twice in PBS containing 2.5% fetal calf serum and analyzed flow cytometrically. Mitochondrial membrane potential was assessed using Mitotracker Red (CM-H2XROS, Molecular Probes, Eugene, Oreg.). […] The cells were incubated at 37° for 20 minutes, washed twice in PBS containing 2.5% fetal calf serum and analyzed flow cytometrically. Data were acquired on a Coulter Elite Epics or Excel flow cytometer (Coulter, Hialeah, Fla.) and analyzed with CellQuest software, (Becton Dickinson, San Jose, Calif.). […] Each sample population was classified for cell size (forward scatter) and complexity (side scatter), gated on a population of interest and evaluated using 5,000 cells. […]
Drug sensitive L1210 cells and drug resistant L1210/DDP cells were cultured with etomoxir for 24 hours (Tx indicates treatment with etomoxir). The level of cell-surface Fas was determined using fluorochrome conjugated anti-Fas antibodies and flow cytometry. The Fas levels are measured relative to a control for staining artifacts. […]

L1210 cells = experiment: DCFDA staining (reactive intermediates) of L1210 cells; settings: 24 hours of incubation, FIG. 12A
Experimental: as §1
We measured the effects of etomoxir on metabolism by measuring mitochondrial membrane potential with a fluorescent dye (Mitotracker Red, Molecular Probes, Eugene, Oreg.) which fluoresces as a function of mitochondrial potential. […]

[2] = tested on: human leukemia RU937 cells; experiment: mitochondrial membrane potential (MitoTracker) of RU937 cells; settings: 24 hours of incubation, FIG. 13
Experimental: Flow Cytometry. Cells were harvested, counted, and resuspended at 10^6 cells/100 μl of PBS containing 2.5% fetal calf serum in preparation for flow cytometric analysis. Cells were stained for intracellular H202 using 6-carboxy-2′,7′-dichlorodihydrofluorescein diacetate (DCF-DA, Molecular Probes, Eugene, Oreg.). Briefly, cells were incubated at 37° with 1 mM DCF-DA for 20 minutes, washed twice in PBS containing 2.5% fetal calf serum and analyzed flow cytometrically. Mitochondrial membrane potential was assessed using Mitotracker Red (CM-H2XROS, Molecular Probes, Eugene, Oreg.). The cells were resuspended in PBS containing 2.5% fetal calf serum containing a final concentration of 0.5 micromolar Mitotracker dye. The cells were incubated at 37° for 20 minutes, washed twice in PBS containing 2.5% fetal calf serum and analyzed flow cytometrically. Data were acquired on a Coulter Elite Epics or Excel flow cytometer (Coulter, Hialeah, Fla.) and analyzed with CellQuest software, (Becton Dickinson, San Jose, Calif.). […] Each sample population was classified for cell size (forward scatter) and complexity (side scatter), gated on a population of interest and evaluated using 5,000 cells. […]
The effects of etomoxir on human leukemia RU937 cells was determined. […]

[3] = tested on: cell surface Fas (CD95) on B16F1 melanoma cells; experiment: cell surface Fas (CD95) expression on B16F1 melanoma cells; settings: 48 hours
Experimental: Cell Surface Staining. Non-permeabilized cells were stained with antibodies to the cell surface receptors Fas (CD95) (Pharmingen) or with antibodies to uncoupling proteins (anti-UCP2 antibody) (Alpha Diagnostic International). Antibodies for both the isotype control and actual stain were added to the cell suspension, mixed, and then placed on ice for and incubation of 25 minutes in the dark. Subsequently the cells were centrifuged at 300×g for 5 minutes and the supernatant removed. The cells were washed one time with 100 μL of PBS/2.5% FBS and then transferred into flow cytometric tubes containing 500 μL of PBS/2.5% FBS for analysis.
B16F1 melanoma cells were cultured at a concentration of 0.5 to 1 million cells per ml. Cells were harvested and analyzed by flow cytometry. Dot plots are shown in FIG. 15 as functions of live versus dead cells. Each dot on the dot plot represents one cell. Five thousand cells were assessed for forward scatter (FS), as a function of cell size, versus side scatter (SS), as a function of cellular granularity. […]
Referring to FIGS. 17 and 18, B16F1 melanoma cells of Example 12 were untreated or treated with etomoxir at the indicated concentrations for 48 hours. Cells were harvested, stained with fluorochrome conjugated anti-Fas antibody (Pharmingen) and analyzed by flow cytometry.

B16F1 melanoma cells = experiment: mitochondrial membrane potential (Mitotracker Red) of B16F1 melanoma cells; settings: 48 hours, FIG. 20
Experimental: Metabolic Activity Assay. Cells were prepared as previously described. The specific metabolic dye was added and mixed into the cell suspension. This plate was then placed into the 37° incubator for a 20-minute incubation. After incubation, the cells were centrifuged at 300×g for 5 minutes, and the supernatant was removed. The cells were then washed once with PBS/2.5% FBS and transferred into flow cytometric tubes containing 500 μL of PBS/2.5% FBS for analysis
MitoTracker Red CM-H2XROS (Molecular Probes). One vial of MitoTracker Red provides 10 tests and contains 50 μg. This is unstable and can't be stored. Therefore, when each vial was opened, 43 μL of Dimethysulfoxide (DMSO) were added. […]
Geometric Mean Fluorescence. […] Once the stained sample was plotted against the control (isotype or unstained), geometric mean fluorescence values were obtained for both histogram peaks. The stained control sample value was subtracted from sample to identify the actual fluorescence of the stained sample over that of the control.
B16F1 melanoma cells of Example 12 were untreated or treated with etomoxir at the indicated concentrations for 48 hours. Cells were harvested, stained with Mitotracker Red (Molecular Probes) as described in Materials and Methods, and analyzed by flow cytometry. The value of Mitotracker Red was then calculated as described in Materials and Methods. […]

SMILES: CCOC(=O)C1(CCCCCCOc2ccc(Cl)cc2)CO1 (stereo not shown) [etomoxir, 2-(6-(4-chlorophenoxy)-hexyl)-oxirane-2-carboxylic acid ethyl ester]
- cell surface Fas ([1]; cultured with etomoxir for 24 hours, FIG. 7): significant increases
- methotrexate-induced increases in Fas ([1]; etomoxir with methotrexate, FIG. 8): increases
- free radicals (reactive intermediates), DCFDA staining (L1210 cells): increase
- levels of mitochondrial membrane potential (MitoTracker) [2]: increased
- cell surface Fas expression, live cell population ([3]; FIG. 17): dose dependent increase
- cell surface Fas expression, dead cell population ([3]; FIG. 18): dose dependent increase
- mitochondrial membrane potential as measured by Mitotracker Red (B16F1 melanoma cells): increase
